Test results: article PMC8778187, “A New Oxygen Containing Pyclen-Type Ligand as a Manganese(II) Binder for MRI and ^52Mn PET Applications: Equilibrium, Kinetic, Relaxometric, Structural and Radiochemical Studies” (Molecules, 2022)
Read-outs that look alike come from different tables or passages of the source. Marks after values point to notes of the source that are not given here.

Assays:
[1] = Cu^2+ complex; T = 25 °C, I = 0.15 M NaCl; ref 16 (PC2A ligands), 12 (DO2A ligands), 20 (H21,7-O2DO2A); cited from earlier work
[2] = cited from earlier work; for r1p: Mn(II) complex, 0.49 T, pH = 7.4, ref 16 (PC2A ligands), 12 (DO2A ligands), 20 (H21,7-O2DO2A); for r1p / relaxivity upon binding to HSA: 25 °C; for relaxivity upon binding to HSA: Mn(II) bound to HSA; for relaxivity of complexes with q = 0: typical values
[3] = T = 25 °C, I = 0.15 M NaCl, ref 16 (PC2A ligands), 12 (DO2A ligands), cited from earlier work; for log K1^H / log K2^H / log K3^H / Σlog Κ2^H: 20 (H21,7-O2DO2A); for Σlog Κ2^H: log K1^H + log K2^H
[4] = T = 25 °C, ref 16 (PC2A ligands), 12 (DO2A ligands), cited from earlier work; for log KMnL / log KMnHL: Mn^2+ complex, I = 0.15 M NaCl; for log KMnL / pMn: 20 (H21,7-O2DO2A); for pMn: pMn = −log(Mn(II)free), cMn^2+ = cligand = 1 × 10^−5 M, pH = 7.4
[5] = Ca^2+ complex; T = 25 °C, I = 0.15 M NaCl; ref 16 (PC2A ligands), 12 (DO2A ligands), 20 (H21,7-O2DO2A); cited from earlier work
[6] = Zn^2+ complex, T = 25 °C, I = 0.15 M NaCl, cited from earlier work; for log KMnLOH: DO2A values carry footnote f, ref 12 (DO2A ligands); for log KMnLOH / log KMnL: 20 (H21,7-O2DO2A); for log KMnL / log KMnHL: ref 16 (PC2A ligands), 12 (DO2A ligands)
[7] = 1H relaxometry: r1p and r2p relaxivity of Mn(II) complexes; assay type: physicochemical; conditions: free Mn(II) ion, 1.41 T
Experimental: The relaxivity of Mn(II) complexes is one of the most important parameters that directly correlates with its MRI efficacy. Relaxivity is defined as the longitudinal (r1p) and transverse (r2p) water proton relaxation rate enhancement, provided by 1.0 mM concentration of the paramagnetic species. The relaxivity (r1p and r2p) of the Mn(II) complexes were determined using relaxometers operating at 0.49 T and 1.41 T field strength, in a HEPES buffer (I = 0.15 M NaCl) at different temperatures from the slopes of plots 1/T1,2 vs. (Mn(II)) for 4 concentrations of Mn(II) (data shown in Supporting Information Figures S24 and S25), and they are compared in Table 4.
The ^1H longitudinal (T1) and transverse (T2) relaxation times were measured by using Bruker Minispec MQ-20 and MQ-60 NMR analyzers (Bruker corporation, Billerica, MA, USA). The temperature of the sample holder was set at 25.0 or 37 (±0.2) °C, and controlled with a circulating water bath thermostat. The T1 values of the samples were determined by means of the inversion recovery method (180°–τ–90°), averaging 4–6 data points obtained at 12 different τ delay times, while T2 data were collected by using the Carl–Purcell–Meiboom–Gill (CPMG) spin-echo pulse sequence. Relaxivities were determined by published procedures (from the slopes of the plots of 1/T1,2 vs. (Mn(II)) for 4 concentrations of Mn(II)), in samples of 0.3–0.4 mL volume (data shown in Figures S24 and S25, Supplementary Information). The pH were set by either using a 0.05 M 4-(2-hydroxyethyl)-1-piperazine-ethanesulfonic acid (HEPES) buffer (pH = 7.4) or monitored (pH profiles) using a Metrohm 827 pH lab pH meter and a Metrohm 6.0234.100 combined electrode, in the pH range of 1.75–11.8.

[8] = 17O NMR and NMRD measurements (water exchange, rotation, hydration number); assay type: physicochemical; conditions: ratio of kex^298 values
Experimental: The relaxivity of paramagnetic metal complexes is governed by several parameters, including the water exchange rate (kex), the rotational correlation time (τR), and the number of inner sphere water molecules (q). In order to obtain information for these parameters, temperature dependent ^17O NMR measurements (9.4 T) and nuclear magnetic relaxation dispersion (NMRD) experiments were carried out in the frequency range of 0.01–80 MHz, at 3 different temperatures (25, 37, and 50 °C). Since numerous physico-chemical parameters determine the relaxivity, the independent assessment of some of the parameters is essential for the correct characterization. The variable temperature ^17O NMR measurements can deliver information about kex and τR via the transverse (1/T2) and the longitudinal (1/T1) ^17O relaxation rates, respectively, while the ^17O chemical shifts (Δω) depend on q. Therefore, the transverse and longitudinal relaxation rates and chemical shifts for a [Mn(3,9-OPC2A)] complex and a diamagnetic reference sample (HClO4, pH = 3.3) have been determined in the aqueous solution.
The ^17O 1/T2r values and the NMRD data have been analyzed simultaneously by the Swift–Connick equations [31], as well as by the Solomon–Bloembergen–Morgan (SMB) and Freed models (see Supporting Information). In this calculation, the water exchange rate, kex^298; its activation enthalpy and entropy, ΔH^‡ and ΔS^‡; the rotational correlational time, τR; its activation energy, ER; the square of the zero-field splitting energy (ZFS), Δ^2; and the correlation time of its modulation, τv, have been determined and listed in Table 5, together with corresponding values of other complexes for comparison. As a result of the high number of parameters involved in the calculations, some have to be set to reasonable estimates based on literature data. Thus, the scalar coupling constant, A/ħO, is set to 33 × 10^6 rad s^−1, the distance between the metal ion, and the inner and outer sphere water protons are fixed to rMnH = 2.83 Å and aMnH = 3.6 Å, respectively; the diffusion coefficient and its activation energy are fixed to DMnH = 23 × 10^−10 m^2s^−1 and EMnH = 18 kJmol^−1, and the activation energy of the modulation of the zero-field-splitting, Ev to 1.0 kJmol^−1.
The hydration number has been fixed to q = 1, based on the relaxivity value measured at 20 MHz (r1 = 3.09 mM^−1s^−1), and on the value, 0.97 ± 0.2, determined for q using the method proposed by Gale et al..
A Bruker Avance 400 (9.4 T) spectrometer was used to measure the longitudinal (1/T1) and transverse (1/T2) relaxation rates, and the chemical shifts of an aqueous solution of the [Mn(3,9-OPC2A)] complex (pH = 7.4, 1.3 mM) and a diamagnetic reference (HClO4 acidified water, pH = 3.3) in the temperature range of 273–348 K. The temperature calibration was performed using literature protocols relying on ethylene glycol and methanol standards. The 1/T1 and 1/T2 values were determined by the inversion−recovery and the Carr−Purcell−Meiboom−Gill spin echo technique, respectively. To avoid susceptibility corrections of the chemical shifts, a glass sphere fitted into a 10 mm NMR tube was used to contain the samples. ^17O enriched water (10% H2^17O, CortecNet) was added to the solutions to improve sensitivity (circa 1% enrichment). Proton NMRD profiles of the [Mn(3,9-OPC2A)] complex (1.00 mM, pH = 7.4) were recorded in aqueous solution on a Stelar SMARTracer Fast Field Cycling relaxometer (0.01−10 MHz), and a Bruker WP80 NMR electromagnet adapted to variable field measurements (20−80 MHz) and controlled by a SMARTracer PC-NMR console (Stelar s.r.l., Mede, Italy). The temperature was monitored by a VTC91 temperature control unit and maintained by a gas flow. The temperature was determined by previous calibration with a Pt resistance temperature probe. […]

[9] = cited from earlier work; for r1^298_20 MHz: 20 MHz, 298 K; for ΔH^‡: activation enthalpy of water exchange; for τv^298: correlation time of ZFS modulation; for q: hydration number; for τR^298: rotational correlation time; for Δ^2: square of the zero-field splitting energy; for kex^298: water exchange rate
[10] = cited from earlier work; for k2: ref 16 ([Mn(3,6-PC2A)]), 12 ([Mn(1,4-DO2A)]), 20 ([Mn(1,7-O2DO2A)]); for t1/2 (h) at pH = 7.4: extrapolated to pH = 7.4; for t1/2 (h) at pH = 7.4 / k1: ref 16 (PC2A complexes), 12, 13, 20; for k1: proton assisted dissociation
[11] = fixed during the fitting procedure

For `O=C(O)CN1CCNCCNCCN(CC(=O)O)CC1` [H21,4-DO2A], the “log KMnHL” value [1] is given as 2.95, the “log KMnL” value [1] is given as 24.43 ^g and the r1p [2] is given as 2.10 mM⁻¹ s⁻¹. The “log K1^H” value [3] was 11.44, the “log K2^H” value [3] was 9.51 and the “log K3^H” value [3] was 4.14. The “log K4^H” value [3] was 1.55, the “Σlog Κ2^H” value [3] was 20.95 and the “log KMnL” value [4] was 15.68. For the same compound, the “log KMnHL” value [4] was 4.15, the pMn [4] was 7.27 and the “log KMnL” value [5] was 8.62. The “log KMnLOH” value [6] was 1.65 ^f, the “log KMnL” value [6] was 18.03 and the “log KMnHL” value [6] was 3.58.
In the case of `O=C(O)CN1CCNCCN(CC(=O)O)CCNCC1` [H21,7-DO2A], the “log KMnHL” value [1] is listed as 3.06, the “log KMnL” value [1] is listed as 24.24 and the r1p [2] is listed as 1.50 mM⁻¹ s⁻¹. For the same compound, the “log K1^H” value [3] was 11.69, the “log K2^H” value [3] was 9.75 and the “log K3^H” value [3] was 3.97. For the same compound, the “log K4^H” value [3] was 2.68, the “Σlog Κ2^H” value [3] was 21.44 and the “log KMnL” value [4] was 14.64. The “log KMnHL” value [4] was 4.40, the pMn [4] was 6.52 and the “log KMnL” value [5] was 8.86. The “log KMnLOH” value [6] was 1.78 ^f, the “log KMnL” value [6] was 18.86 and the “log KMnHL” value [6] was 4.23.
In the case of `[Mn+2]` [Mn(II) ion], the “relaxivity upon binding to HSA” value ([2]; 0.47 T) is listed as 97.2 mM⁻¹ s⁻¹, the “relaxivity upon binding to HSA” value ([2]; 1.41 T) is listed as 76.35 mM⁻¹ s⁻¹ and the “relaxivity in pure aqueous solution” value ([2]; Mn(II) ion) is listed as 7.92 mM⁻¹ s⁻¹. The r2p relaxivity ([7]; 25 °C) was 64.3 mM⁻¹ s⁻¹ and the r2p relaxivity ([7]; 37 °C) was 54.2 mM⁻¹ s⁻¹.
In the case of `O=C([O-])CN1CCNCCNCCN(CC(=O)[O-])CC1.[Mn+2]` [[Mn(1,4-DO2A)]], the “water exchange faster than on [Mn(3,9-OPC2A)]” value [8] is listed as 20 times, the “r1^298_20 MHz” value [9] is listed as 2.1 mM⁻¹ s⁻¹ and the ER ([9]; activation energy of rotation) is listed as 19.1 kJmol^−1. For the same compound, the “ΔH^‡” value [9] was 29.4 kJmol^−1, the “τv^298” value [9] was 4.4 ps and the q [9, 11] was 0.87. The “τR^298” value [9] was 46 ps, the “Δ^2” value [9] was 481 10^18s^−2 and the “kex^298” value [9] was 113 10^7s^−1. The k2 ([10]; T = 25 °C, I = 0.15 M NaCl) was 1.4 × 10^6 M^−2s^−1, the “t1/2 (h) at pH = 7.4” value [10] was 48 h and the k1 ([10]; T = 25 °C, I = 0.15 M NaCl) was 99 M⁻¹ s⁻¹.
In the case of `CN(C)C(=O)CN1CCNCCNCCN(CC(=O)N(C)C)CC1.O.[Mn+2]` [[Mn(1,4-DO2AM^Me2)]^2+], the “r1^298_20 MHz” value [9] is given as 2.5 mM⁻¹ s⁻¹, the ER ([9]; activation energy of rotation) is given as 19.1 kJmol^−1 and the “ΔH^‡” value [9] is given as 36.9 kJmol^−1. The “τv^298” value [9] was 5.5 ps, the q [9, 11] was 0.87 and the “τR^298” value [9] was 53 ps. For the same compound, the “Δ^2” value [9] was 510 10^18s^−2, the “kex^298” value [9] was 11.5 10^7s^−1 and the “t1/2 (h) at pH = 7.4” value [10] was 556 h. For the same compound, the k1 ([10]; T = 25 °C, I = 0.15 M NaCl) was 8.7 M⁻¹ s⁻¹.
In the case of `O.O=C([O-])CN1CCOCCN(CC(=O)[O-])CCOCC1.[Mn+2]` [[Mn(1,7-O2DO2A)]], the “r1^298_20 MHz” value [9] is listed as 2.86 mM⁻¹ s⁻¹, the “ΔH^‡” value [9] is listed as 29.7 kJmol^−1 and the “ΔS^‡” value ([9]; activation entropy of water exchange) is listed as 2.8 JK^−1mol^−1. The ER [9, 11] was 20 ^e kJmol^−1, the q [9, 11] was 1 and the “τR^298” value [9] was 46.7 ps. For the same compound, the “Δ^2” value [9] was 111 10^18s^−2, the “kex^298” value [9] was 5.3 10^7s^−1 and the k2 ([10]; T = 25 °C, I = 0.15 M NaCl) was 3.0 × 10^6 M^−2s^−1. For the same compound, the “t1/2 (h) at pH = 7.4” value [10] was 56.8 h and the k1 ([10]; T = 25 °C, I = 0.15 M NaCl) was 85 M⁻¹ s⁻¹.
For `O.O=C([O-])CN1CCNCc2cccc(n2)CN(CC(=O)[O-])CC1.[Mn+2]` [[Mn(3,6-PC2A)]], the k2 ([10]; T = 25 °C, I = 0.15 M NaCl) is given as 1.5 × 10^5 M^−2s^−1, the “t1/2 (h) at pH = 7.4” value [10] is given as 63.2 h and the k3 ([10]; metal assisted dissociation, T = 25 °C, I = 0.15 M NaCl) is given as 0.026 M⁻¹ s⁻¹. For the same compound, the k1 ([10]; T = 25 °C, I = 0.15 M NaCl) was 70 M⁻¹ s⁻¹, the “KMnL x H” value ([10]; protonation constant of the complex from kinetic fit, T = 25 °C, I = 0.15 M NaCl) was 1.15 × 10^3 and the KML x Cu ([10]; stability constant of dinuclear intermediate, T = 25 °C, I = 0.15 M NaCl, unit assumed) was 16 M⁻¹.
In the case of `O=C([O-])CN1CCNCCN(CC(=O)[O-])CCN(CC(=O)[O-])CC1.[Mn+2]` [[Mn(DO3A)]^−], the “relaxivity of complexes with q = 0” value [2] is given as 1.4 to 1.6 mM⁻¹ s⁻¹.
In the case of `O=C([O-])CN1CCN(CC(=O)[O-])Cc2cccc(n2)CN(CC(=O)[O-])CC1.[Mn+2]` [[Mn(PCTA)]^−], the “relaxivity of complexes with q = 0” value [2] is listed as 1.4 to 1.6 mM⁻¹ s⁻¹.
